According to ChEMBL document CHEMBL1201862, “PubChem BioAssay data set” (2004):
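Five concentrations, 48 hours, 96-well plates. Abbreviation: GI50, concentration required for 50% inhibition of growth.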 The source made the active and inactive calls. Rule as the data show it: active = GI50 up to about 1.1 µM and inactive = higher.

Columns and labels:
Assay in all cases: NCI-60 cell line screen, 48 h
DLD-1 = tested on: DLD-1
COLO 205 = tested on: COLO 205
K562 = tested on: K562
IGROV-1 = tested on: IGROV-1
A498 = tested on: A498
XF498 = tested on: XF498
U-251 = tested on: U-251
SW-620 = tested on: SW-620
SK-MEL-2 = tested on: SK-MEL-2
DMS-273 = tested on: DMS-273
CCRF-CEM = tested on: CCRF-CEM
A549 = tested on: A549
HOP-92 = tested on: HOP-92
TK-10 = tested on: TK-10
SNB-75 = tested on: SNB-75
Malme-3M = tested on: Malme-3M
MOLT-4 = tested on: MOLT-4
SNB-19 = tested on: SNB-19
SK-MEL-28 = tested on: SK-MEL-28
HL-60 = tested on: HL-60
NCI-H460 = tested on: NCI-H460
SK-OV-3 = tested on: SK-OV-3
KM12 = tested on: KM12
HOP-62 = tested on: HOP-62
UACC-257 = tested on: UACC-257
HT-29 = tested on: HT-29
OVCAR-3 = tested on: OVCAR-3
CAKI-1 = tested on: CAKI-1
NCI-H522 = tested on: NCI-H522
SK-MEL-5 = tested on: SK-MEL-5
OVCAR-8 = tested on: OVCAR-8
UO-31 = tested on: UO-31
786-0 = tested on: 786-0
UACC-62 = tested on: UACC-62
KM-20L2 = tested on: KM-20L2
SF-539 = tested on: SF-539
HCC 2998 = tested on: HCC 2998
SF-295 = tested on: SF-295
DMS-114 = tested on: DMS-114
OVCAR-5 = tested on: OVCAR-5
ACHN = tested on: ACHN
M19-MEL = tested on: M19-MEL
SN12C = tested on: SN12C
M14 = tested on: M14
NCI-H226 = tested on: NCI-H226
HCT-116 = tested on: HCT-116
LXFL 529 = tested on: LXFL 529
SR = tested on: SR
SNB-78 = tested on: SNB-78
NCI-H23 = tested on: NCI-H23
RXF 393 = tested on: RXF 393
RPMI-8226 = tested on: RPMI-8226
SF-268 = tested on: SF-268
OVCAR-4 = tested on: OVCAR-4
EKVX = tested on: EKVX
LOX IMVI = tested on: LOX IMVI
HCT-15 = tested on: HCT-15

SMILES: C[S+]([O-])c1ccc(COP(N)(=O)N(CCCl)CCCl)cc1 (stereo not drawn)
- GI50 (DLD-1): > 100 µM (inactive)
- GI50 (COLO 205): > 100 µM (inactive)
- GI50 (K562): > 100 µM (inactive)
- GI50 (IGROV-1): > 100 µM (inactive)
- GI50 (A498): > 100 µM (inactive)
- GI50 (XF498): > 100 µM (inactive)
- GI50 (U-251): > 100 µM (inactive)
- GI50 (SW-620): > 100 µM (inactive)
- GI50 (SK-MEL-2): > 100 µM (inactive)
- GI50 (DMS-273): > 100 µM (inactive)
- GI50 (CCRF-CEM): > 100 µM (inactive)
- GI50 (A549): > 100 µM (inactive)
- GI50 (HOP-92): > 100 µM (inactive)
- GI50 (TK-10): > 100 µM (inactive)
- GI50 (SNB-75): > 100 µM (inactive)
- GI50 (Malme-3M): > 100 µM (inactive)
- GI50 (MOLT-4): > 100 µM (inactive)
- GI50 (SNB-19): > 100 µM (inactive)
- GI50 (SK-MEL-28): > 100 µM (inactive)
- GI50 (HL-60): > 100 µM (inactive)
- GI50 (NCI-H460): > 100 µM (inactive)
- GI50 (SK-OV-3): > 100 µM (inactive)
- GI50 (KM12): > 100 µM (inactive)
- GI50 (HOP-62): > 100 µM (inactive)
- GI50 (UACC-257): > 100 µM (inactive)
- GI50 (HT-29): > 100 µM (inactive)
- GI50 (OVCAR-3): > 100 µM (inactive)
- GI50 (CAKI-1): > 100 µM (inactive)
- GI50 (NCI-H522): > 100 µM (inactive)
- GI50 (SK-MEL-5): > 100 µM (inactive)
- GI50 (OVCAR-8): > 100 µM (inactive)
- GI50 (UO-31): > 100 µM (inactive)
- GI50 (786-0): > 100 µM (inactive)
- GI50 (UACC-62): > 100 µM (inactive)
- GI50 (KM-20L2): > 100 µM (inactive)
- GI50 (SF-539): > 100 µM (inactive)
- GI50 (HCC 2998): > 100 µM (inactive)
- GI50 (SF-295): > 100 µM (inactive)
- GI50 (DMS-114): > 100 µM (inactive)
- GI50 (OVCAR-5): > 100 µM (inactive)
- GI50 (ACHN): > 100 µM (inactive)
- GI50 (M19-MEL): > 100 µM (inactive)
- GI50 (SN12C): > 100 µM (inactive)
- GI50 (M14): > 100 µM (inactive)
- GI50 (NCI-H226): > 100 µM (inactive)
- GI50 (HCT-116): > 100 µM (inactive)
- GI50 (LXFL 529): > 100 µM (inactive)
- GI50 (SR): > 100 µM (inactive)
- GI50 (SNB-78): > 100 µM (inactive)
- GI50 (NCI-H23): > 100 µM (inactive)
- GI50 (RXF 393): > 100 µM (inactive)
- GI50 (RPMI-8226): > 100 µM (inactive)
- GI50 (SF-268): > 100 µM (inactive)
- GI50 (OVCAR-4): > 100 µM (inactive)
- GI50 (EKVX): > 100 µM (inactive)
- GI50 (LOX IMVI): > 100 µM (inactive)

SMILES: Cc1cc(O)nc(CNC(=O)c2cccc3ccccc23)n1
- GI50 (DLD-1): > 100 µM (inactive)
- GI50 (COLO 205): > 100 µM (inactive)
- GI50 (K562): > 100 µM (inactive)
- GI50 (IGROV-1): > 100 µM (inactive)
- GI50 (A498): > 100 µM (inactive)
- GI50 (XF498): > 100 µM (inactive)
- GI50 (U-251): > 100 µM (inactive)
- GI50 (SW-620): > 100 µM (inactive)
- GI50 (DMS-273): > 100 µM (inactive)
- GI50 (CCRF-CEM): > 100 µM (inactive)
- GI50 (A549): > 100 µM (inactive)
- GI50 (HOP-92): > 100 µM (inactive)
- GI50 (TK-10): > 100 µM (inactive)
- GI50 (SNB-75): > 100 µM (inactive)
- GI50 (Malme-3M): > 100 µM (inactive)
- GI50 (MOLT-4): > 100 µM (inactive)
- GI50 (SNB-19): > 100 µM (inactive)
- GI50 (SK-MEL-28): > 100 µM (inactive)
- GI50 (HL-60): > 100 µM (inactive)
- GI50 (NCI-H460): > 100 µM (inactive)
- GI50 (SK-OV-3): > 100 µM (inactive)
- GI50 (HOP-62): > 100 µM (inactive)
- GI50 (UACC-257): > 100 µM (inactive)
- GI50 (HT-29): > 100 µM (inactive)
- GI50 (OVCAR-3): > 100 µM (inactive)
- GI50 (CAKI-1): > 100 µM (inactive)
- GI50 (NCI-H522): > 100 µM (inactive)
- GI50 (SK-MEL-5): > 100 µM (inactive)
- GI50 (OVCAR-8): > 100 µM (inactive)
- GI50 (UO-31): > 100 µM (inactive)
- GI50 (786-0): > 100 µM (inactive)
- GI50 (UACC-62): > 100 µM (inactive)
- GI50 (HCT-15): > 100 µM
- GI50 (KM-20L2): > 100 µM (inactive)
- GI50 (SF-539): > 100 µM (inactive)
- GI50 (HCC 2998): > 100 µM (inactive)
- GI50 (SF-295): > 100 µM (inactive)
- GI50 (ACHN): > 100 µM (inactive)
- GI50 (M19-MEL): > 100 µM (inactive)
- GI50 (SN12C): > 100 µM (inactive)
- GI50 (M14): > 100 µM (inactive)
- GI50 (NCI-H226): > 100 µM (inactive)
- GI50 (HCT-116): > 100 µM (inactive)
- GI50 (LXFL 529): > 100 µM (inactive)
- GI50 (SR): > 100 µM (inactive)
- GI50 (SNB-78): > 100 µM (inactive)
- GI50 (NCI-H23): > 100 µM (inactive)
- GI50 (RXF 393): > 100 µM (inactive)
- GI50 (SF-268): > 100 µM (inactive)
- GI50 (OVCAR-4): > 100 µM (inactive)
- GI50 (EKVX): > 100 µM (inactive)
- GI50 (LOX IMVI): > 100 µM (inactive)
